In patent publication US20230067159A1, “ROR-GAMMA-T INHIBITOR, PREPARATION METHOD THEREOF AND USE THEREOF” (priority 2020, published 2023):

Biological target: T1, RORγ (Homo sapiens, UniProt P51449)
T1 construct: The concentration of B-RORγ LBD was 40 nM
T1 sequence (P51449 269-508 limits assumed): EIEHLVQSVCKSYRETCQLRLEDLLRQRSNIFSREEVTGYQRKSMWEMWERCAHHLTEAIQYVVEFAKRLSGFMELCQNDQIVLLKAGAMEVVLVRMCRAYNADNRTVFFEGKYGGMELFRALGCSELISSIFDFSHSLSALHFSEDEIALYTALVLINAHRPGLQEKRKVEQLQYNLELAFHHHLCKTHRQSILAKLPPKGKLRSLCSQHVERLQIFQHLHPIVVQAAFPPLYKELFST
Assay: Fluorescence resonance energy transfer (FRET) test, B-RORγ LBD / Biotin-SRC1
Type: biochemical
Procedure: Biological Example 1 Fluorescence Resonance Energy Transfer (FRET) Test
(1) Preparation of RORγ Test Buffer and 10 mM of DTT
100 mL of 1× Basic test buffer (HEPES (pH 7.4), 100 mM NaCl, 0.01% BSA) was prepared, and 154.25 mg of DTT was added. The mixture was well mixed.
(2) Preparation of Compound with Gradient Concentration
a. Standard compound was prepared: Standard compound was diluted with 100% DMSO to 2.5 mM, then diluted 3-fold with 11 serial dilutions to a final concentration of […];
b. Test compound was prepared referring to the standard compound.
(3) Preparation of 1× Protein Solution Mixture
(§1) a. Preparation of the desired amount of 2× B-RORγ LBD/SA-APC protein mixture: The concentration of B-RORγ LBD was 40 nM, and the concentration of SA-APC was 20 nM. They were mixed by gently inversion, and incubated at room temperature for 15 minutes. Then 400 nM of biotin was added. The mixture was mixed by gently inversion, and incubated at room temperature for 10 minutes;
as §1, with “b.” for “a.”, “Biotin-SRC1/SA-eu” for “B-RORγ LBD/SA-APC”, “Bioin-SRC1” for “B-RORγ LBD”, “SA-eu” for “SA-APC”, “200” for “400”
c. The protein mixtures prepared in step a and step b were mixed at a ratio of 1:1, and incubated at room temperature for 5 minutes;
d. 25 μL of the mixture from step c was added to the 384-well plate containing the test compound;
e. The mixture was centrifuged at 1000 rpm for one minute;
f. The mixture was incubated for 1 hour at room temperature.
(4) Data Collection and Calculation
After incubation at room temperature for 1 hour, the fluorescence values at 665 nm and 615 nm were measured with an EnVision plate reader, and the inhibition rate was calculated.
Inhibition rate %)=[(X−Min)/(Max−Min)]×100%
X is the fluorescence value ratio of “665/615” of the test compound; Min is the average value of “665/615” of the DMSO blank control; Max is the average value of “665/615” of the 10 μM SRC.

Row | Structure (SMILES) | IC50
1 | CCS(=O)(=O)c1ccc([C@H](CO)NC(=O)c2ccc(N3C[C@H](Oc4ccc(C(F)(F)F)cc4)C[C@H]3CCOC(F)F)cc2)cc1 [Example 46] | 13.2 nM
2 | CCS(=O)(=O)c1ccc([C@H](CO)NC(=O)c2ccc(N3C[C@@H](Oc4ccc(C(F)(F)F)cc4)C[C@H]3CCOC(F)F)cc2)cc1 [Example 47] | 4.6 nM
3 | CCS(=O)(=O)c1ccc([C@H](CO)NC(=O)c2ccc(N3C[C@@H](Oc4ccc(C(F)(F)F)nc4)C[C@H]3COC(F)F)cc2)cc1 [Example 83] | 6 nM
4 | CCS(=O)(=O)c1ccc(CNC(=O)c2ccc(N3CC(Cc4ccc(C(F)(F)F)cc4)C[C@H]3COC)cc2)cc1 (stereo partly drawn) [Example 7, N-(4-(ethylsulfonyl)benzyl)-4-((2S)-2-(methoxymethyl)-4-(4-(trifluoromethyl)benzyl)pyrrolidin-1-yl)benzamide] | 8.5 nM
5 | CCS(=O)(=O)c1ccc([C@H](CO)NC(=O)c2ccc(N3C[C@H](Oc4ccc(C(F)(F)F)cc4)C[C@H]3COC(F)F)cc2)cc1 [Example 40] | 25 nM
6 | CCS(=O)(=O)c1ccc([C@H](CO)NC(=O)c2ccc(N3C[C@H](Oc4ccc(C(F)(F)F)cc4)C[C@H]3COC(F)F)nc2)cc1 [Example 52] | 49.9 nM
7 | CCS(=O)(=O)c1ccc([C@H](CO)NC(=O)c2ccc(N3C[C@@H](Oc4ccc(C(F)(F)F)cc4)C[C@H]3COC(F)F)nc2)nc1 [Example 70] | 7.6 nM
8 | CCC(F)(F)OC[C@@H]1C[C@H](Oc2ccc(C(F)(F)F)cc2)CN1c1ncc(C(=O)N[C@@H](CO)c2ccc(S(=O)(=O)CC)cc2)cn1 [Example 67] | 8 nM
9 | CCS(=O)(=O)c1ccc(CNC(=O)c2ccc(N3C[C@@H](Oc4ccc(OC(F)(F)F)cn4)C[C@H]3COC(F)F)nc2)cc1 [Example 110] | 11 nM
10 | CCS(=O)(=O)c1ccc(CNC(=O)c2cnc(N3C[C@H](Oc4ccc(C(F)(F)F)cc4)C[C@H]3COCCF)nc2)cc1 [Example 58, N-(4-(ethylsulfonyl)benzyl)-2-((2S, 4R)-2-((2-fluoroethoxy)methyl)-4-(4-(trifluoromethyl)phenoxy)pyrrolidin-1-yl)pyrimidine-5-carboxamide] | 57.3 nM
11 | CCS(=O)(=O)c1ccc(CNC(=O)c2cnc(N3C[C@@H](Oc4ccc(OC(F)(F)F)cn4)C[C@H]3COC(F)F)c(F)c2)cc1 [Example 111] | 5 nM
12 | CCS(=O)(=O)c1ccc([C@H](CO)NC(=O)c2ccc(N3C[C@H](Oc4ccc(C(F)(F)F)cc4)C[C@H]3COCC(F)(F)F)cc2)cc1 [Example 30, N—((R)-1-(4-(ethylsulfonyl)phenyl)-2-hydroxyethyl)-4-((2S,4R)-2-((2,2,2-trifluoroethoxy)methyl)-4-(4-(trifluoromethyl)phenoxy)pyrrolidin-1-yl)benzamide] | 17.1 nM
13 | CCS(=O)(=O)c1ccc([C@H](CO)NC(=O)c2ccc(N3CC[C@H](Oc4ccc(C(F)(F)F)cc4)C3)cc2)cc1 [Example 14, N—((R)-1-(4-(ethylsulfonyl)phenyl)-2-hydroxyethyl)-4-((S)-3-(4-(trifluoromethyl)phenoxy)pyrrolidin-1-yl)benzamide] | 20 nM
14 | CCS(=O)(=O)c1ccc([C@H](CO)NC(=O)c2ccc(N3C[C@@H](Oc4ccc(C(F)(F)F)cc4)C[C@H]3COC(F)F)nc2)cc1 [Example 53] | 3 nM
15 | CCS(=O)(=O)c1ccc([C@H](CO)NC(=O)c2ccc(N3C[C@H](Oc4ccc(C(F)(F)F)cc4)C[C@H]3COCCF)cc2)cc1 [Example 29, N—((R)-1-(4-(ethylsulfonyl)phenyl)-2-hydroxyethyl)-4-((2S,4R)-2-((2-fluoroethoxy)methyl)-4-(4-(trifluoromethyl)phenoxy)pyrrolidin-1-yl)benzamide] | 10.4 nM
16 | CCCOC[C@@H]1C[C@@H](Oc2ccc(C(F)(F)F)cc2)CN1c1ccc(C(=O)N[C@@H](CO)c2ccc(S(=O)(=O)CC)cc2)cc1 [Example 27, N—((R)-1-(4-(ethylsulfonyl)phenyl)-2-hydroxyethyl)-4-((2S,4R)-2-(propoxymethyl)-4-(4-(trifluoromethyl)phenoxy)pyrrolidin-1-yl)benzamide] | 20.8 nM

Row | Structure (SMILES) | IC50
17 | CCS(=O)(=O)c1ccc([C@H](CO)NC(=O)c2ccc(N3C[C@H](Oc4ccc(C(F)(F)F)cc4)C[C@H]3COCC3CC3)cc2)cc1 [Example 31] | 17 nM
18 | CCS(=O)(=O)c1ccc([C@H](CO)NC(=O)c2ccc(N3C[C@@H](Oc4ccc(C(F)(F)F)cc4)C[C@H]3COC(F)F)c(OC)c2)cc1 [Example 89] | 26 nM
19 | CCS(=O)(=O)c1ccc([C@H](CO)NC(=O)c2ccc(N3C[C@@H](Oc4ccc(C(F)(F)F)cc4)C[C@H]3COC(F)(F)F)nc2)cc1 [Example 94, N—((R)-1-(4-(ethylsulfonyl)phenyl)-2-hydroxyethyl)-6-((2S,4S)-2-((trifluoromethoxy)methyl)-4-(4-(trifluoromethyl)phenoxy)pyrrolidin-1-yl)nicotinamide] | 8 nM
20 | CCS(=O)(=O)c1ccc(CNC(=O)c2ccc(N3CCC(Cc4ccc(C(F)(F)F)cc4)C3)cc2)cc1 (centres unmarked) [Example 2] | 14 nM
21 | CCOC[C@@H]1CC(Oc2ccc(C(F)(F)F)cc2)CN1c1ccc(C(=O)NCc2ccc(S(=O)(=O)CC)cc2)cc1 (some centres unmarked) [Example 19] | 18.6 nM
22 | CCS(=O)(=O)c1ccc([C@H](CO)NC(=O)c2ccc(N3C[C@@H](Oc4ccc(C(F)(F)F)cc4)C[C@H]3COC(F)F)cc2F)cc1 [Example 86] | 6 nM
23 | CCS(=O)(=O)c1ccc(CNC(=O)c2ccc(N3C[C@@H](Oc4ccc(OC(F)(F)F)cn4)C[C@H]3COC(F)F)cc2)cc1 [Example 107] | 78 nM
24 | CCS(=O)(=O)c1ccc([C@H](CO)NC(=O)c2ccc(N3C[C@@H](Oc4ccc5c(c4)OC(F)(F)O5)C[C@H]3COC(F)F)cc2)cc1 [Example 82, 4-((2S,4S)-4-((2,2-difluorobenzo[d][1,3]dioxol-5-yl)oxy)-2-((difluoromethoxy)methyl)pyrrolidin-1-yl)-N—((R)-1-(4-(ethylsulfonyl)phenyl)-2-hydroxyethyl)benzamide] | 4 nM
25 | CCS(=O)(=O)c1ccc([C@H](CO)NC(=O)c2ccc(N3C[C@H](Oc4ccc(C(F)(F)F)cc4)C[C@H]3COCCC#N)cc2)cc1 [Example 32] | 19 nM
26 | CCS(=O)(=O)c1ccc([C@H](CO)NC(=O)c2ccc(N3CCC(Cc4ccc(C(F)(F)F)cc4)C3)cc2)cc1 (stereo partly drawn) [Example 6, N—((R)-1-(4-(ethylsulfonyl)phenyl)-2-hydroxyethyl)-4-(3-(4-(trifluoromethyl)benzyl)pyrrolidin-1-yl)benzamide] | 9 nM
27 | CCS(=O)(=O)c1ccc(CNC(=O)c2ccc(N3CCC(Nc4ccc(C(F)(F)F)cc4)C3)cc2)cc1 (centres unmarked) [Example 11, N-(4-(ethylsulfonyl)benzyl)-4-(3-((4-(trifluoromethyl)phenyl)amino)pyrrolidin-1-yl)benzamide] | 33.8 nM
28 | CCS(=O)(=O)c1ccc([C@H](CO)NC(=O)c2ccc(N3CCC(Oc4ccc(C(F)(F)F)cc4)C3)cc2)cc1 (stereo partly drawn) [Example 12, N—((R)-1-(4-(ethylsulfonyl)phenyl)-2-hydroxyethyl)-4-(3-(4-(trifluoromethyl)phenoxy)pyrrolidin-1-yl)benzamide] | 24 nM
29 | CCS(=O)(=O)c1ccc([C@H](CO)NC(=O)c2ccc(N3C[C@H](Oc4ccc(C(F)(F)F)cc4)C[C@H]3CO[C@H]3CCOC3)cc2)cc1 [Example 33, N—((R)-1-(4-(ethylsulfonyl)phenyl)-2-hydroxyethyl)-4-((2S,4R)-2-((((S)-tetrahydrofuran-3-yl)oxy)methyl)-4-(4-(trifluoromethyl)phenoxy)pyrrolidin-1-yl)benzamide] | 132 nM
30 | CCS(=O)(=O)c1ccc([C@H](CO)NC(=O)c2ccc(N3C[C@H](Oc4ccc(C(F)(F)F)cc4)C[C@H]3CF)cc2)cc1 [Example 24, N—((R)-1-(4-(ethylsulfonyl)phenyl)-2-hydroxyethyl)-4-((2S,4R)-2-(fluoromethyl)-4-(4-(trifluoromethyl)phenoxy)pyrrolidin-1-yl)benzamide] | 32.8 nM
31 | CCS(=O)(=O)c1ccc([C@H](CCO)NC(=O)c2ccc(N3CC(Oc4ccc(OC(F)F)cc4)C[C@H]3COC(F)F)cc2)cc1 (stereo in doubt) [Example 114, 4-((2S,4S)-2-((difluoromethoxy)methyl)-4-(4-(difluoromethoxy)phenoxy)pyrrolidin-1-yl)-N—((S)-1-(4-(ethylsulfonyl)phenyl)-3-hydroxypropyl)benzamide] | 2 nM
32 | CCS(=O)(=O)c1ccc([C@H](CO)NC(=O)c2ccc(N3C[C@H](Oc4ccc(C(F)(F)F)cc4)C[C@H]3COCCC(F)F)cc2)cc1 [Example 44] | 51 nM
